US11364211B2, “Methods for selecting phosphatase selective and non-selective phosphatase inhibitors” (MEDICAL RESEARCH COUNCIL, priority 2015, dated 2022)
Entries after “also recorded” stand apart in the source; their conditions may differ.

Legend:
PP1c = PP1c (Homo sapiens, UniProt P36873); test: PP1c catalytic activity assay (EnzChek); format: biochemical; conditions: purified PP1c 30 nM, 30 minutes at 4° C.
Method: Residual activity of PP1c was then measured using the EnzChek Phosphatase Assay Kit (Thermo Fisher Scientific) according to the supplier's instructions.

HeLa cells = test: Translation rates by 35S-methionine labelling in HeLa cells; format: cell-based, human; conditions: for protein synthesis / translation rates: basal conditions, 10 μM
Method: Cells (90,000 cells/ml) were plated in 12-well plates, treated as indicated, labelled with 100 μCi/ml ^35S-methionine (Hartmann Analytic) for 10 minutes at 37° C., washed with ice-cold PBS and lysed in 120 μl Laemmli Buffer. Lysates were boiled at 95° C. for 5 minutes, sonicated and resolved on 4-12% Bolt Bis-Tris Plus Gels (Thermo Fisher Scientific). Gels were then stained with InstantBlue (Expedeon) and analyzed by phosphorimaging.

db/db mice = test: Blood glucose in obese db/db mice; format: in vivo, mouse; conditions: 1 mg/kg once a day for three weeks
Method: For treatment of a metabolic disorder, Db/db animals (n=5 per condition) were treated once a day with 1 mg/kg of compound of Example 1 for three weeks. Blood glucose levels were measured with a blood glucose meter (DSI) between 9 and 10 am. Data are mean +/− S.e.m.

[1] = Toxicity and weight in mice treated for 2 weeks; format: in vivo, mouse; parameters: toxicity / clinical signs: dose or concentration left out as unconfirmed
Method: For studying the effect of a compound of Example 1 on weight, C3H/B6 mice were gavaged orally once a day with compounds of Example 1 and mice weight was recorded daily for 2 weeks.
Mice were treated with Example 1 and monitored closely to detect any clinical signs. […] This establishes that PPP1R15B inhibition is not toxic. This was surprising and unanticipated as prior to this study one would have speculated that PPP1R15B inhibitors would be so deleterious that they would have no therapeutic potential.

[2] = tested on: dorsal root ganglia culture (DRG) from PMP22 mutant mice; test: Myelination in DRG cultures from PMP22 mutant mice; format: cell-based, mouse; conditions: 5 nM compound, 14 days
Method: Dorsal root ganglia (DRG) dissected from wild-type or Pmp22Tr-J (PMP22mutant) (Henry et al., Neuropathol. Exp. Neurol., 42, 688-706, 1983) embryo at 13.5 or […] (E13.5) were cultured on collagen coated coverslips in neurobasal media supplemented with 4 g/l glucose, 2 mM L-glutamine, 2% B27 supplement and 50 ng/ml neuronal growth factor (NGF) for 7 days. To differentiate Schwann cells and induce myelination, the cultured DRGs were then maintained in C-media (MEM media supplemented with 4 g/l glucose, 2 mM L-glutamine, 10% FCS, 50 ng/ml NGF). The C-media was replaced every other day with freshly added 50 μg/ml ascorbic acid ±5 nM of compound of Example I and cultured for 14 days for myelination by the Schwann cells. The cultured DRGs were then fixed in 4% paraformaldehyde and immunostained with MBP (Rat Myelin basic protein, 1/250 dilution, ab73498).

PPP1R15A-PP1 complex = molecular target: T1, PPP1R15A-PP1 complex (Homo sapiens, UniProt O75807); test: SPR steady-state binding to R15A-PP1c holophosphatase on streptavidin chip
T1 construct: the cDNAs encoding amino acids 325-636 of PPP1R15A; made in house; host or cells: R15A fragment: E. coli BL21-Gold; BAP-PP1γ: Sf9 insect cells (baculovirus)
T1 sequence (O75807 325-636): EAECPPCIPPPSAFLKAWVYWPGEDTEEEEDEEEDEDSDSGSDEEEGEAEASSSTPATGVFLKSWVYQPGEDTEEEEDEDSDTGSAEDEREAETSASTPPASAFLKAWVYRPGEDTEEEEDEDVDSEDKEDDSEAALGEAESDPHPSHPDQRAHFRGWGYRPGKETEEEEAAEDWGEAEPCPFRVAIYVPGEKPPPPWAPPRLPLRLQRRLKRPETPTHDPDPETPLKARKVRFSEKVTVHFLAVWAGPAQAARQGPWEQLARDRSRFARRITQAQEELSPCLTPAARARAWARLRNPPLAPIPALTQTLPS
T1 sequence (P36873 whole entry partner, the tested form may be a part): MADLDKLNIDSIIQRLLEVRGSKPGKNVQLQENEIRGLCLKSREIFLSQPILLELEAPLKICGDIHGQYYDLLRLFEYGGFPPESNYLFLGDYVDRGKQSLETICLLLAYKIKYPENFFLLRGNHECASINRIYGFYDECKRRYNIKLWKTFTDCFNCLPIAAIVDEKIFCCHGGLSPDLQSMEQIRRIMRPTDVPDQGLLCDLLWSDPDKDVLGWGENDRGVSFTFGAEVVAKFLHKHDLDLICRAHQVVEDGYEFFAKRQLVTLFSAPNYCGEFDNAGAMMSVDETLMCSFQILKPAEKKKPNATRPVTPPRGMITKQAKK
Method: The streptavidin coated surface was activated by 1 min injection with a solution of 50 mM NaOH and 1 M NaCl. Biotin-PP1 was diluted in the running buffer (50 mM Tris pH 7.5, 100 mM NaCl, 0.1 mM EGTA, 1 mM MnCl2, 0.05% Tween 20) and injected at approximately 300 nM concentration directly to streptavidin coated surface for 100 sec or to reach immobilization level of biotin-PP1 corresponding to ˜7000 RU. A blank immobilization was performed for one of the SA sensor chip surface to use as a reference.
With minor deviations, the same procedure and conditions were used in all binding experiments. Small molecules were stored as 50 mM stock solutions in 100% DMSO. Prior to determining binding constants, serial dilutions of either 12 or 8 concentrations of the compounds were prepared in the running buffer in a 96-well plate. […] Then, without regenerating the surface, the compound dilution series was injected onto the surface of the chip Sensorgrams were analyzed using the Biacore T200 evaluation software and the binding constants determined based on a steady-state model. Kinetic experiments are carried out using different concentrations of the compound and their respective equilibrium binding levels determined.
Surface Plasmon Resonance (SPR) was used to measure the binding affinity of compounds to the PPP1R15A/B-PP1 phosphatase complex. Biotin acceptor peptide (BAP) was fused to the N-terminus of PP1γ, which enables the biotinylation of the BAP-tagged protein in Sf9 insect cells. After purification the BAP-PP1γ protein was captured on a streptavidin sensor chip (SA-chip, GE healthcare) to a response level of ˜5.000 RU. Using controlled biotinylation enables orientated and uniform immobilization on the sensor chip surface. The PP1γ was then used to capture PPP1R15A/B and form a holophosphatase complex on the surface of the streptavidin chip. This complex can then be used to test binding of compounds. 10 μM PPP1R15A/B protein concentration was used to form the holophosphatase complex during a 80 s injection. […] After the concentration series (8 or 12 concentrations) is completed the surface is regenerated with 3 M NaCl and we can capture R15A/B again to form a fresh holophosphatase complex to measure a binding of another compound concentration series. Analysing the level of equilibrium binding as a function of concentration gives interaction affinities or steady-state binding affinity (KD).
The streptavidin coated surface was activated by 1 minute injection with a solution of 50 mM NaOH and 1 M NaCl three times at a flow rate of 10 μl/min. bio-GBZ or bio-PP1c was diluted in the running buffer (50 mM Tris pH 7.5, 100 mM NaCl, 0.1 mM EGTA, 0.05% Tween 20, 0.1% DMSO) and injected at approximately 300 nM concentration at a flow rate of 10 μl/min directly to streptavidin coated surface to reach immobilization level of bio-GBZ or bio-PP1c corresponding to ˜200 and 6000 RU, respectively. A blank immobilization was performed for one of the SA sensor chip surface to use as a reference.
With minor deviations, the same procedure and conditions were used in all binding experiments. Small molecules were stored as 50 mM stock solutions in 100% DMSO. Prior to determining binding constants, serial dilutions of either 12 or 8 concentrations of the compounds were prepared in the running buffer in a 96-well plate. […] This was followed by 1 minute stabilization period, to wash off any unspecific binding. […]

PP1c, sequence (P36873 whole entry): as the sequence (P36873 whole entry partner, the tested form may be a part) above

| SMILES | inhibition of PP1c in enzymatic assay (PP1c; listed as TST3) | protein synthesis in the presence of GBZ (HeLa cells; TST3+/- GBZ at 10 μM) | protein synthesis / translation rates (HeLa cells; listed as TST3) | blood glucose (db/db mice) | toxicity / clinical signs ([1]; once a day for 2 weeks) | weight gain ([1]; up to 10 mg/mg once a day for 2 weeks) | myelination (length of myelin internodes) [2] | inhibition of PP1c in enzymatic assay (PP1c) | protein synthesis / translation rates (HeLa cells) | binding to R15A-PP1c (in words) (PPP1R15A-PP1 complex) | Kd (PPP1R15A-PP1 complex; steady-state affinity, listed as GBZ) |
| --- | --- | --- | --- | --- | --- | --- | --- | --- | --- | --- | --- |
| [H]/N=C(\N)NN=Cc1cccc(Cl)c1Cl [Example 1, (E)-2-(2,3-dichlorobenzylidene)hydrazine-1-carboximidamide] | does not inhibit PP1c; also recorded: doesn't inhibit PP1 | persistently inhibits protein synthesis; also recorded: rendered persistent | transiently reduces protein synthesis; also recorded: rapidly and transiently decreased | ameliorate a metabolic disorder; also recorded: reduced the pathological high blood glucose | undistinguishable from mice treated with placebo; also recorded: not toxic | gained weight normally | improved myelination; also recorded: increased the length of myelin internodes | – | – | – | – |
| N=C(N)N/N=C/c1c(Cl)cccc1Cl [Guanabenz, reference compound] | – | – | – | – | – | – | – | does not inhibit PP1c | did not affect | strongly bound | 0.122 µM |
